Experimental findings from BindingDB's records for doi:10.1124/mol.110.070540 (University of Technology Sydney, 2011) are described below.

Each structure is given as a SMILES string. Bridge positions count the residues as written; N and C are the ends. Peptide text beside a SMILES is read from it.

A short description of assay [1]: Inhibition of voltage-gated calcium channel Cav-mediated fast-transient current in Periplaneta americana (American cockroach) DUM neurons assessed as measured at holding potential -80 mV depolarized to +40 mV after 10 min by whole cell patch clamp assay in presence of CdCl2.
The nature of assay [2]: Inhibition of voltage-gated calcium channel Cav-mediated late-sustained current in Periplaneta americana (American cockroach) DUM neurons assessed as measured at holding potential -80 mV depolarized to +40 mV after 10 min by whole cell patch clamp assay in presence of CdCl2.

In the case of `CSCC[C@@H]1NC(=O)[C@H](CCCCN)NC(=O)[C@H](Cc2ccccc2)NC(=O)[C@H](CCC(N)=O)NC(=O)[C@@H](NC(=O)[C@@H](N)Cc2ccc(O)cc2)CSSC[C@@H]2NC(=O)[C@@H]3CSSC[C@@H](C(=O)N[C@@H](CCCCN)C(=O)N[C@@H](CC(C)C)C(=O)N[C@@H](CC(N)=O)C(=O)N[C@@H](CC(C)C)C(=O)O)NC(=O)[C@H](Cc4c[nH]c5ccccc45)NC(=O)[C@H](CC(C)C)NC(=O)[C@H](CCCNC(=N)N)NC(=O)[C@H](CSSC[C@H](NC(=O)[C@H]([C@@H](C)O)NC(=O)[C@H](Cc4c[nH]c5ccccc45)NC1=O)C(=O)N[C@@H](CC(=O)O)C(=O)N[C@@H](CO)C(=O)N[C@@H](CCC(=O)O)C(=O)N[C@@H](CCCNC(=N)N)C(=O)N[C@@H](CCCCN)C(=O)N3)NC(=O)[C@H](C(C)C)NC(=O)[C@H](CCSC)NC(=O)[C@H](CC(=O)O)NC(=O)[C@H](CCC(=O)O)NC2=O`, the IC50 – broadly, the midpoint of a concentration-inhibition curve – came to 25 nM in assay [1] and 19 nM in assay [2].

In the case of `CSCC[C@@H]1NC(=O)[C@H](CC(=O)O)NC(=O)[C@H](CCC(=O)O)NC(=O)[C@@H]2CSSC[C@H](NC(=O)[C@@H](N)Cc3ccc(O)cc3)C(=O)N[C@@H](CCC(N)=O)C(=O)N[C@@H](CCCCN)C(=O)N[C@@H](Cc3ccccc3)C(=O)N[C@@H](CC(C)C)C(=O)N[C@@H](Cc3c[nH]c4ccccc34)C(=O)N[C@@H]([C@@H](C)O)C(=O)N[C@H]3CSSC[C@H](NC(=O)[C@H](C(C)C)NC1=O)C(=O)N[C@@H](CCC(=O)O)C(=O)N[C@@H](CC(C)C)C(=O)N[C@@H](Cc1c[nH]c4ccccc14)C(=O)N[C@H](C(=O)N[C@@H](CCCCN)C(=O)N[C@@H](CC(C)C)C(=O)N[C@@H](CCC(=O)O)C(=O)N[C@@H](CCCCN)C(=O)O)CSSC[C@H](NC(=O)[C@H](CCCCN)NC(=O)[C@H](CCCNC(=N)N)NC(=O)[C@H](CCC(=O)O)NC(=O)[C@H]([C@@H](C)O)NC(=O)[C@H](CC(=O)O)NC3=O)C(=O)N2` (H-YCQKFLWTCDTERKCCEDMVCELWCKLEK-OH; disulfide 2-16, 9-21, 15-25), the IC50 in assay [1] and in assay [2] was 3.7 nM in each case.

On to `CSCC[C@@H]1NC(=O)[C@H](CC(=O)O)NC(=O)[C@H](CCC(=O)O)NC(=O)[C@@H]2CSSC[C@H](NC(=O)[C@@H](N)Cc3ccc(O)cc3)C(=O)N[C@@H](CCC(N)=O)C(=O)N[C@@H](CCCCN)C(=O)N[C@@H](Cc3ccccc3)C(=O)N[C@@H](CC(C)C)C(=O)N[C@@H](Cc3c[nH]c4ccccc34)C(=O)N[C@@H]([C@@H](C)O)C(=O)N[C@H]3CSSC[C@H](NC(=O)[C@H](C(C)C)NC1=O)C(=O)N[C@@H](CCC(=O)O)C(=O)N[C@@H](CC(C)C)C(=O)N[C@@H](Cc1c[nH]c4ccccc14)C(=O)N[C@H](C(=O)N[C@@H](CCCCN)C(=O)N[C@@H](Cc1ccc(O)cc1)C(=O)N[C@@H](CCCCN)C(=O)N[C@@H](CCC(=O)O)C(=O)O)CSSC[C@H](NC(=O)[C@H](CCCCN)NC(=O)[C@H](CCCNC(=N)N)NC(=O)[C@H](CCC(=O)O)NC(=O)[C@H]([C@@H](C)O)NC(=O)[C@H](CC(=O)O)NC3=O)C(=O)N2` (H-YCQKFLWTCDTERKCCEDMVCELWCKYKE-OH; disulfide 2-16, 9-21, 15-25), for which the IC50 in assay [1] was 25 nM; in assay [2] it was 26 nM.
